# Experimental data as given in US20160000777A1, “METHODS OF USING HISTAMINE RECEPTOR AGONISTS AND ANTAGONISTS” (UNIVERSITY OF ROCHESTER, priority 2013, published 2016).
# Key:
# [1] = test system: pro-Filaggrin (pro-FLG); conditions: FIG. 6
# Method: Human keratinocytes were isolated from neonatal foreskin as previously described (Poumay et al., “Basal Detachment of the Epidermis Using Dispase: Tissue Spatial Organization and Fate of Integrin alpha 6 beta 4 and Hemidesmosomes,” J Invest Dermatol 102:111-7 (1994), which is hereby incorporated by reference in its entirety). PHK were cultured in Keratinocyte-SFM (Invitrogen/Gibco, Grand Island, N.Y.) with 5 ng/ml human recombinant Epidermal Growth Factor 1-53 (EGF 1-53), 50 μg/ml Bovine Pituitary Extract (BEP), 1% Pen/Strep, and 0.2% Amphotericin B (Invitrogen/Gibco). To induce terminal differentiation PHK were grown in DMEM (Invitrogen/Gibco) with 1% Pen/Strep and 0.2% Amphotericin B (Invitrogen/Gibco). Where it is indicated, 10% heat-inactivated bovine serum (Invitrogen) was added to the differentiation media. […] The protein concentration of all samples was determined by BCA (Pierce). […] TJ integrity was assessed by trans-epithelial electrical resistance (TEER) and paracellular fluorescein flux (permeability). […] Keratinocyte differentiation was assessed by examining filaggrin, loricrin and keratin 10 expression by Western blot. Expression of HRs were evaluated by qPCR in skin biopsies taken from lesional and nonlesional sites in AD subjects (n=6-8) and non-atopics (n=10).
# [2] = test system: airway epithelial cells; conditions: cited from earlier work
# [3] = test system: human skin explant; conditions: ex-vivo epidermal explants, histamine 100 μM, 24 hr, P<0.05, n=3
# Method: Briefly, TEER was measured using an EVOMX voltohmmeter (World Precision Instruments, Sarasota, Fla.). To evaluate the paracellular flux of PHK, 0.02% Fluorescein (FITC) Sodium (Fluka, St. Louis, Mo.) in PBS (Invitrogen/Gibco) was added to the upper chamber. Samples were collected from the lower chamber after 30 minutes incubation for PHK culture or 10 and 20 minutes for skin explant. For each experiment paracellular flux was normalized to an empty filter.
# Skin samples were mounted on filter supports (Whatman Nuclepore Track-Etch Membrane; GE Healthcare Biosciences, Pittsburgh, Pa.) with the epidermal side oriented upward, and sandwiched between two sterile custom made Plexiglas discs with an opening of 3 mm and placed in modified Snapwell™ chambers (Corning, Corning, N.Y., USA). Samples were submerged in DMEM media and kept at 37° C., 5% CO2 for 30 min. Fresh media with histamine (10 or 100 μM) or media alone were then added to both sides of the transwell. TEER and Paracellular flux of fluorescein of skin explant were measured at 24 hr.
# [4] = test system: primary human keratinocytes (PHK); test: Paracellular fluorescein flux (permeability) in cultured primary human keratinocytes; assay type: cell-based; conditions: histamine 100 μM, P<0.001, n=9, 96 hrs, FIG. 2B
# Method: (§1) PHK were cultured in Keratinocyte-SFM (Invitrogen/Gibco, Grand Island, N.Y.) with 5 ng/ml human recombinant Epidermal Growth Factor 1-53 (EGF 1-53), 50 μg/ml Bovine Pituitary Extract (BEP), 1% Pen/Strep, and 0.2% Amphotericin B (Invitrogen/Gibco). To induce terminal differentiation PHK were grown in DMEM (Invitrogen/Gibco) with 1% Pen/Strep and 0.2% Amphotericin B (Invitrogen/Gibco). Where it is indicated, 10% heat-inactivated bovine serum (Invitrogen) was added to the differentiation media. […] Briefly, TEER was measured using an EVOMX voltohmmeter (World Precision Instruments, Sarasota, Fla.). To evaluate the paracellular flux of PHK, 0.02% Fluorescein (FITC) Sodium (Fluka, St. Louis, Mo.) in PBS (Invitrogen/Gibco) was added to the upper chamber. Samples were collected from the lower chamber after 30 minutes incubation for PHK culture or 10 and 20 minutes for skin explant. For each experiment paracellular flux was normalized to an empty filter. […] TJ integrity was assessed by trans-epithelial electrical resistance (TEER) and paracellular fluorescein flux (permeability).
# [5] = test system: primary human keratinocytes (PHK); test: Transepithelial electric resistance (TEER) in cultured primary human keratinocytes; assay type: cell-based
# Method: as §1
# [6] = test system: human keratinocytes; conditions: cited from earlier work
# [7] = test system: ZO-1; conditions: nasal and retinal epithelial cells, cited from earlier work
structure (smiles),measurement,setting,value
O=C(O)COCCN1CCN(C(c2ccccc2)c2ccc(Cl)cc2)CC1 (centres unmarked) [Cetirizine],Prevention of histamine-mediated reduction of pro-FLG expression,[1]; PHK co-treated with 100 μM histamine and 10 μM Cetirizine,prevented
NCCc1c[nH]cn1 [histamine],TJ paracellular permeability,[2],enhance TJ paracellular permeability
same,pro-FLG expression,"[1]; PHK at day 5 post differentiation, 100 μM histamine, Western blot, n=4",significantly reduced
same,"Fluorescein permeability flux, Fold of control (FOC)","[3]; 20 minutes time point, FIG. 3B",1.3 fold
same,"TEER, Fold of control (FOC)",[3]; FIG. 3A,0.7 fold
same,"Permeability to Fluorescein, Mean Fold of control (FOC)",[4],enhancement of permeability
same,TEER peak,"[5]; PHK differentiated in DMEM serum free media, histamine 100 μM, 96 hours post-stimulation, n=4, FIG. 2C",significantly reduced TEER peak
same,"TEER, Mean Area under the curve (AUC)","[5]; PHK, histamine 10 and 100 μM, P<0.001, n=10, AUC of 0-120 h time points, FIG. 2A",dose dependent reduction of TEER
same,"Expression of stratum corneum and granulosum barrier proteins (e.g. filaggrin, Loricrin, claudin1, occludin)",[6],reduced the expression
same,Expression of ZO-1,[7],reduce the expression
COc1ccc(CN(CCN(C)C)c2ccccn2)cc1 [mepyriamine],Abrogation of histamine effect on ZO-1 expression,[7]; pretreatment with antagonist,at least partially abrogated
